Reference: patent US9510598B2, “Nitrogen-containing heterocyclic compounds for plant disease control” (BAYER CROPSCIENCE AG, priority 2012, dated 2016)
Values joined by “and” are separate entries in the source; they are usually repeats but may differ in a detail not shown here. Identical values can stand only once. Like-named read-outs stand apart in the source and are kept apart here.

Key:
Pyrenophora teres = test: In vivo preventive test on Pyrenophora teres (net blotch on barley); conditions: 500 ppm; barley plants sprayed 24 hours before contamination; grading 12 days after contamination vs control plants
Method: Barley plants (“Plaisant” variety), sown in starter cups on a 50/50 peat soil-pozzolana substrate and grown at 22° C. (12 h)/20° C. (12 h), are treated at the 1-leaf stage (10 cm height) by spraying with the active ingredient prepared as described above. Plants, used as controls, are treated with the mixture of acetone/tween/DMSO/water not containing the active material. After 24 hours, the plants are contaminated by spraying the leaves with an aqueous suspension of Pyrenophora teres spores (12 000 spores per ml). The spores are collected from a 12-day-old culture. […] Grading (% of efficacy) is carried out 12 days after the contamination, in comparison with the control plants.

Septoria tritici = test: In vivo preventive test on Septoria tritici (leaf spot on wheat); conditions: 500 ppm; wheat plants sprayed 24 hours before contamination; grading 21 to 28 days after contamination vs control plants
In short: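 Scipion wheat at 1-leaf stage sprayed with compound, controls receiving acetone/tween/DMSO/water vehicle; 24 h later leaves inoculated with Septoria tritici spores (500 000 spores per ml). Efficacy (%) graded versus control plants 21 to 28 days after contamination.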

[1] = assay type: physicochemical
Uromyces appendiculatus = test: In vivo preventive test on Uromyces appendiculatus (bean rust); conditions: 500 ppm; bean plants sprayed 24 hours before contamination; grading 10 days after contamination vs control plants
Method: Bean plants (“Saxa” variety), sown in starter cups on a 50/50 peat soil-pozzolana substrate and grown at 24° C., are treated at the 2-leaf stage (9 cm height) by spraying with the active ingredient prepared as described above. Plants, used as controls, are treated with the mixture of acetone/tween/DMSO/water not containing the active material. After 24 hours, the plants are contaminated by spraying the leaves with an aqueous suspension of Uromyces appendiculatus spores (150 000 spores per ml).

Sphaerotheca fuliginea = test: In vivo preventive test on Sphaerotheca fuliginea (powdery mildew on cucurbits); conditions: 500 ppm; gherkin plants sprayed 24 hours before contamination; grading 12 days after contamination vs control plants
In short: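 Preventive spray of gherkin plants at Z11 cotyledon stage, grown at 24° C; inoculation 24 hours later with Sphaerotheca fuliginea spores (100 000 spores per ml). Efficacy graded 12 days post-inoculation as % versus solvent-treated control plants.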

Phytophthora infestans = assay type: in vivo; conditions: 500 ppm; tomato plants sprayed 24 hours before contamination; grading 5 days after contamination vs control plants
Alternaria brassicae = test: In vivo preventive test on Alternaria brassicae (leaf spot on radish); conditions: 500 ppm; radish plants sprayed 24 hours before contamination; grading 5 days after contamination vs control plants
In short: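 Radish plants ('Pernod Clair', grown at 17 °C) were spray-treated at the 2-leaf stage; controls received solvent mix only. After 24 h, leaves were sprayed with 50 000 spores/ml from 15-day-old cultures, and % efficacy was graded 5 days post-inoculation against controls.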

Puccinia recondita = test: In vivo preventive test on Puccinia recondita (brown rust on wheat); conditions: 500 ppm; wheat plants sprayed 24 hours before contamination; grading 10 days after contamination vs control plants
Method: Wheat plants (“Scipion” variety), sown in starter cups on a 50/50 peat soil-pozzolana substrate and grown at 22° C. (12 h)/20° C. (12 h), are treated at the 1-leaf stage (10 cm height) by spraying with the active ingredient prepared as described above. Plants, used as controls, are treated with the mixture of acetone/tween/DMSO/water not containing the active material. After 24 hours, the plants are contaminated by spraying the leaves with an aqueous suspension of Puccinia recondita spores (100 000 spores per ml).

Botrytis cinerea = test: In vivo preventive test on Botrytis cinerea (grey mould); conditions: 500 ppm; gherkin plants sprayed 24 hours before contamination; grading 4-5 days after contamination vs control plants
In short: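 Gherkin plants ("Vert petit de Paris") sprayed with compound at Z11 cotyledon stage, then inoculated 24 h later with B. cinerea spores (50 000/ml) in PDB/fructose/NH4NO3/KH2PO4 nutrient solution. Incubated at 17 °C, 80% RH; % efficacy versus solvent-treated controls graded 4–5 days after contamination.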

[2] = HPLC on reversed phase columns, method [a]: pH 2.7, 0.1% formic acid in water / acetonitrile, linear gradient 10% to 95% acetonitrile
[3] = method [a]: HPLC/LC-MS on reversed phase at pH 2.7, 0.1% formic acid in water / acetonitrile, gradient 10% to 95% acetonitrile
[4] = method [a]: HPLC/LC-MS on reversed phase at pH 2.7, 0.1% formic acid in water / acetonitrile, linear gradient 10% to 95% acetonitrile

C=C(C)C1(C(=O)NCC2COC(C)(C)O2)CC(c2ccc3ncc(Br)cc3c2)=NO1 (stereo not drawn) [compound 520]
% of efficacy (protection) (Pyrenophora teres): 88% | % of efficacy (protection) (Septoria tritici): 79% | log P [1, 2]: 3.29[a]

CC(C)NC(=O)C1(C)CC(c2ccc3ncc(N)cc3c2)=NO1 (racemic) [compound 435]
% of efficacy (protection) (Pyrenophora teres): 83% | % of efficacy (protection) (Uromyces appendiculatus): 77% | log P [1, 3]: 1.19[a]

C#Cc1cnc2ccc(C3=NOC(C)(C(=O)NCc4cccc5ccccc45)C3)cc2c1 (stereo not drawn) [compound 225]
% of efficacy (protection) (Pyrenophora teres): 79% | log P [1, 4]: 3.46^[a]

C#Cc1cnc2ccc(C3=NOC(C)(C(=O)NC(C)c4ccccn4)C3)cc2c1 (stereo not drawn) [compound 206]
% of efficacy (protection) (Pyrenophora teres): 71% | % of efficacy (protection) (Septoria tritici): 100% | % of efficacy (protection) (Sphaerotheca fuliginea): 94% | log P [1, 4]: 1.9^[a] | % of efficacy (protection) (Phytophthora infestans): 93%

C#CCONC(=O)C1(C)CC(c2ccc3ncc(Br)cc3c2)=NO1 (stereo not drawn) [compound 306]
% of efficacy (protection) (Pyrenophora teres): 75% | % of efficacy (protection) (Alternaria brassicae): 71% | % of efficacy (protection) (Septoria tritici): 78% | % of efficacy (protection) (Uromyces appendiculatus): 100% | log P [1, 2]: 2.22[a]

COC1(C(=O)NC(C)C)CC(c2ccc3ncc(I)cc3c2)=NO1 (racemic) [compound 436]
% of efficacy (protection) (Pyrenophora teres): 92% | % of efficacy (protection) (Septoria tritici): 100% | % of efficacy (protection) (Sphaerotheca fuliginea): 100% | % of efficacy (protection) (Uromyces appendiculatus): 100% | log P [1, 3]: 2.75[a] | % of efficacy (protection) (Puccinia recondita): 94%

C#Cc1cnc2ccc(C3=NOC(C)(C(=O)NCc4ccc(Cl)cc4Cl)C3)cc2c1 (stereo not drawn) [compound 198]
% of efficacy (protection) (Pyrenophora teres): 86% | % of efficacy (protection) (Alternaria brassicae): 98% | % of efficacy (protection) (Septoria tritici): 86% | % of efficacy (protection) (Botrytis cinerea): 95% | log P [1, 4]: 3.73^[a]

C#Cc1cnc2ccc(C3=NOC(C)(C(=O)NCc4ccc5c(c4)CCO5)C3)cc2c1 (stereo not drawn) [compound 219]
% of efficacy (protection) (Pyrenophora teres): 71% | % of efficacy (protection) (Alternaria brassicae): 75% | % of efficacy (protection) (Botrytis cinerea): 99% | log P [1, 4]: 2.78^[a]

CCc1cnc2ccc(C3=NOC(C)(C(=O)NCc4cn(CC)nc4C)C3)cc2c1 (stereo not drawn) [compound 256]
% of efficacy (protection) (Pyrenophora teres): 75% | % of efficacy (protection) (Septoria tritici): 100% | log P [1, 2]: 1.72^[a]

Cc1cnc2ccc(C3=NOC(C)(C(=O)NC(C)C)C3)cc2c1 (stereo not drawn) [compound 260]
% of efficacy (protection) (Pyrenophora teres): 75% | % of efficacy (protection) (Septoria tritici): 98% | % of efficacy (protection) (Botrytis cinerea): 75% | log P [1, 2]: 1.63^[a] | % of efficacy (protection) (Phytophthora infestans): 90%

CC1(C)OCC(CNC(=O)C2(C)CC(c3ccc4ncc(Br)cc4c3)=NO2)O1 (stereo not drawn) [compound 129]
% of efficacy (protection) (Pyrenophora teres): 88% | % of efficacy (protection) (Septoria tritici): 100% | % of efficacy (protection) (Sphaerotheca fuliginea): 80% | % of efficacy (protection) (Uromyces appendiculatus): 100% | log P [1, 4]: 2.64^[a] | % of efficacy (protection) (Phytophthora infestans): 85%

C#Cc1cnc2ccc(C3=NOC(OC)(C(=O)NC(C)C)C3)cc2c1 (stereo not drawn) [compound 406]
% of efficacy (protection) (Pyrenophora teres): 83% | % of efficacy (protection) (Septoria tritici): 100% | % of efficacy (protection) (Sphaerotheca fuliginea): 100% | log P [1, 3]: 2.35[a]

C#Cc1cnc2ccc(C3=NOC(C)(C(=O)NCc4ccccc4)C3)cc2c1 (stereo not drawn) [compound 169]
% of efficacy (protection) (Pyrenophora teres): 79% | % of efficacy (protection) (Septoria tritici): 100% | % of efficacy (protection) (Botrytis cinerea): 100% | log P [1, 4]: 2.86^[a]

Cc1nn(C)c(C)c1CNC(=O)C1(C)CC(c2ccc3ncc(Br)cc3c2)=NO1 (stereo not drawn) [compound 177]
% of efficacy (protection) (Pyrenophora teres): 86% | log P [1, 4]: 2.13^[a]

CCOCCCNC(=O)C1(OC)CC(c2ccc3ncc(Br)cc3c2)=NO1 (stereo not drawn) [compound 52]
% of efficacy (protection) (Pyrenophora teres): 71% | % of efficacy (protection) (Alternaria brassicae): 71% and 75% | % of efficacy (protection) (Septoria tritici): 93% and 97% | % of efficacy (protection) (Sphaerotheca fuliginea): 100% | % of efficacy (protection) (Botrytis cinerea): 100% | log P [1, 4]: 2.68^[a] | % of efficacy (protection) (Puccinia recondita): 88%

Cc1c(CNC(=O)C2(C)CC(c3ccc4ncc(Br)cc4c3)=NO2)cnn1C (stereo not drawn) [compound 179]
% of efficacy (protection) (Pyrenophora teres): 86% | log P [1, 4]: 2.15^[a]

C#Cc1cnc2ccc(C3=NOC(CC)(C(=O)NCCCOCC)C3)cc2c1 (racemic) [compound 440]
% of efficacy (protection) (Pyrenophora teres): 75% | % of efficacy (protection) (Sphaerotheca fuliginea): 89% | log P [1, 3]: 2.73[a]
